{"source": "patent US9695155B2", "about": "“Herbicidal substituted pyrimidinyloxy benzene compounds” (E. I. DU PONT DE NEMOURS AND COMPANY, priority 2013, dated 2017)", "key": {"kochia": {"test_system": "kochia", "experiment": "Test C postemergence", "assay_type": "in vivo, Kochia scoparia", "conditions": "Bassia scoparia, post-emergence", "how_it_was_run": "(§1)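 Whole-plant greenhouse test with surfactant-containing solvent formulation, applied preemergence to sown loam–sand pots or postemergence to 2–18 cm plants. Scored by eye 13 to 15 days on, 0–100 scale.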"}, "waterhemp": {"test_system": "waterhemp", "experiment": "Test C postemergence", "assay_type": "in vivo, Amaranthus rudis", "conditions": "Amaranthus tuberculatus, post-emergence", "how_it_was_run": "as §1"}, "corn [1]": {"test_system": "corn", "experiment": "Test C postemergence", "assay_type": "in vivo, Zea mays", "conditions": "Zea mays, post-emergence", "how_it_was_run": "as §1"}, "barnyardgrass": {"test_system": "barnyardgrass", "experiment": "Test C postemergence", "assay_type": "in vivo, Echinochloa crus-galli", "conditions": "Echinochloa crus-galli, post-emergence", "how_it_was_run": "as §1"}, "Italian ryegrass": {"test_system": "Italian ryegrass", "experiment": "Test C postemergence", "assay_type": "in vivo, Lolium multiflorum", "conditions": "Lolium multiflorum, post-emergence", "how_it_was_run": "as §1"}, "johnsongrass": {"test_system": "johnsongrass", "experiment": "Test C postemergence", "assay_type": "in vivo, Sorghum halepense", "conditions": "Sorghum halepense, post-emergence", "how_it_was_run": "as §1"}, "pigweed [2]": {"test_system": "pigweed", "experiment": "Test C postemergence", "assay_type": "in vivo, Amaranthus retroflexus", "conditions": "Amaranthus retroflexus, post-emergence", "how_it_was_run": "as §1"}, "giant foxtail": {"test_system": "giant foxtail", "experiment": "Test C postemergence", "assay_type": "in vivo, Setaria faberii", "conditions": "Setaria faberi, post-emergence", "how_it_was_run": "as §1"}, "soybean": {"test_system": "soybean", "experiment": "Test C postemergence", "assay_type": "in vivo, Glycine max", "conditions": "Glycine max, post-emergence", "how_it_was_run": "as §1"}, "corn [3]": {"test_system": "corn", "experiment": "Test A postemergence", "assay_type": "in vivo, Zea mays", "conditions": "Zea mays, post-emergence, 240 h", "how_it_was_run": "(§2)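 Greenhouse pot test, loam/sand soil. Formulation: non-phytotoxic solvent mix plus surfactant. Pre: directed spray onto soil after sowing. Post: plants at 1–2 leaf, 2–10 cm. Rated visually vs untreated controls at ~10 d, 0 (no effect) to 100 (complete control).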"}, "wild oat": {"test_system": "wild oat", "experiment": "Test C postemergence", "assay_type": "in vivo, Avena fatua", "conditions": "Avena fatua, post-emergence", "how_it_was_run": "as §1"}, "pigweed [4]": {"test_system": "pigweed", "experiment": "Test A postemergence", "assay_type": "in vivo, Amaranthus retroflexus", "conditions": "Amaranthus retroflexus, post-emergence", "how_it_was_run": "as §2"}, "pigweed [5]": {"test_system": "pigweed", "experiment": "Test A preemergence", "assay_type": "in vivo, Amaranthus retroflexus", "conditions": "Amaranthus retroflexus, pre-emergence, 0 to 100 scale where 0 is no effect and 100 is complete control, read-out: Plant response rating, Pigweed", "how_it_was_run": "as §2"}, "[6]": {"conditions": "Postemergence, 62 g ai/ha, scale 0 to 100 (0 no effect, 100 complete control)"}}}
{"smiles": "Fc1cccc(Oc2ncc(Cl)cn2)c1-n1cc(C(F)F)nn1", "note": "[Compound 141, 5-chloro-2-[2-[4-(difluoromethyl)-1H-1,2,3-triazol-1-yl]-3-fluorophenoxy]pyrimidine]", "values": [{"measurement": "pest or weed control at 16 g/ha", "setting": "kochia; 16 g ai/ha, postemergence, 0 is no effect, 100 is complete control, read-out: Plant response rating (0 to 100), Kochia", "result": 100, "unit": "%"}, {"measurement": "pest or weed control at 125 g/ha", "setting": "kochia; 125 g ai/ha, postemergence, visual rating, scale 0 to 100 (0 no effect, 100 complete control), read-out: Plant response rating, Kochia", "result": 100, "unit": "%"}, {"measurement": "pest or weed control at 62 g/ha", "setting": "kochia; Postemergence, 62 g ai/ha, scale 0 to 100 (0 no effect, 100 complete control), read-out: Plant response rating, Kochia", "result": 100, "unit": "%"}, {"measurement": "pest or weed control at 16 g/ha", "setting": "waterhemp; 16 g ai/ha, postemergence, 0 is no effect, 100 is complete control, read-out: Plant response rating (0 to 100), Waterhemp", "result": 85, "unit": "%"}, {"measurement": "pest or weed control at 125 g/ha", "setting": "waterhemp; 125 g ai/ha, postemergence, visual rating, scale 0 to 100 (0 no effect, 100 complete control), read-out: Plant response rating, Waterhemp", "result": 100, "unit": "%"}, {"measurement": "pest or weed control at 62 g/ha", "setting": "waterhemp; Postemergence, 62 g ai/ha, scale 0 to 100 (0 no effect, 100 complete control), read-out: Plant response rating, Waterhemp", "result": 100, "unit": "%"}, {"measurement": "plant injury at 16 g/ha", "setting": "corn [1]; 16 g ai/ha, postemergence, 0 is no effect, 100 is complete control, read-out: Plant response rating (0 to 100), Corn", "result": 5, "unit": "%"}, {"measurement": "Corn plant response rating (crop injury, 0 = no effect, 100 = complete kill) at 125 g/ha", "setting": "corn [1]; 125 g ai/ha, postemergence, visual rating, scale 0 to 100 (0 no effect, 100 complete control)", "result": 20, "unit": "%"}, {"measurement": "Corn plant response rating (crop injury, 0 = no effect, 100 = complete kill) at 62 g/ha", "setting": "corn [1]; [6]", "result": 5, "unit": "%"}, {"measurement": "pest or weed control at 16 g/ha", "setting": "barnyardgrass; 16 g ai/ha, postemergence, 0 is no effect, 100 is complete control, read-out: Plant response rating (0 to 100), Barnyardgrass", "result": 15, "unit": "%"}, {"measurement": "pest or weed control at 125 g/ha", "setting": "barnyardgrass; 125 g ai/ha, postemergence, visual rating, scale 0 to 100 (0 no effect, 100 complete control), read-out: Plant response rating, Barnyardgrass", "result": 40, "unit": "%"}, {"measurement": "pest or weed control at 31 g/ha", "setting": "barnyardgrass; Postemergence, 31 g ai/ha, scale 0 to 100 (0 no effect, 100 complete control), 13 to 15 days, read-out: Plant response rating, Barnyardgrass", "result": 15, "unit": "%"}, {"measurement": "pest or weed control at 62 g/ha", "setting": "barnyardgrass; Postemergence, 62 g ai/ha, scale 0 to 100 (0 no effect, 100 complete control), read-out: Plant response rating, Barnyardgrass", "result": 20, "unit": "%"}, {"measurement": "pest or weed control at 16 g/ha", "setting": "Italian ryegrass; 16 g ai/ha, postemergence, 0 is no effect, 100 is complete control, read-out: Plant response rating (0 to 100), Ryegrass, Italian", "result": 0, "unit": "%"}, {"measurement": "pest or weed control at 125 g/ha", "setting": "Italian ryegrass; 125 g ai/ha, postemergence, visual rating, scale 0 to 100 (0 no effect, 100 complete control), read-out: Plant response rating, Ryegrass, Italian", "result": 40, "unit": "%"}, {"measurement": "pest or weed control at 62 g/ha", "setting": "Italian ryegrass; Postemergence, 62 g ai/ha, scale 0 to 100 (0 no effect, 100 complete control), read-out: Plant response rating, Ryegrass, Italian", "result": 5, "unit": "%"}, {"measurement": "pest or weed control at 16 g/ha", "setting": "johnsongrass; 16 g ai/ha, postemergence, 0 is no effect, 100 is complete control, read-out: Plant response rating (0 to 100), Johnsongrass", "result": 5, "unit": "%"}, {"measurement": "pest or weed control at 125 g/ha", "setting": "johnsongrass; 125 g ai/ha, postemergence, visual rating, scale 0 to 100 (0 no effect, 100 complete control), read-out: Plant response rating, Johnsongrass", "result": 30, "unit": "%"}, {"measurement": "pest or weed control at 62 g/ha", "setting": "johnsongrass; Postemergence, 62 g ai/ha, scale 0 to 100 (0 no effect, 100 complete control), read-out: Plant response rating, Johnsongrass", "result": 10, "unit": "%"}, {"measurement": "pest or weed control at 16 g/ha", "setting": "pigweed [2]; 16 g ai/ha, postemergence, 0 is no effect, 100 is complete control, read-out: Plant response rating (0 to 100), Pigweed", "result": 90, "unit": "%"}, {"measurement": "pest or weed control at 125 g/ha", "setting": "pigweed [2]; 125 g ai/ha, postemergence, visual rating, scale 0 to 100 (0 no effect, 100 complete control), read-out: Plant response rating, Pigweed", "result": 98, "unit": "%"}, {"measurement": "pest or weed control at 62 g/ha", "setting": "pigweed [2]; Postemergence, 62 g ai/ha, scale 0 to 100 (0 no effect, 100 complete control), read-out: Plant response rating, Pigweed", "result": 100, "unit": "%"}, {"measurement": "pest or weed control at 16 g/ha", "setting": "giant foxtail; 16 g ai/ha, postemergence, 0 is no effect, 100 is complete control, read-out: Plant response rating (0 to 100), Foxtail, Giant", "result": 10, "unit": "%"}, {"measurement": "pest or weed control at 125 g/ha", "setting": "giant foxtail; 125 g ai/ha, postemergence, visual rating, scale 0 to 100 (0 no effect, 100 complete control), read-out: Plant response rating, Foxtail, Giant", "result": 70, "unit": "%"}, {"measurement": "pest or weed control at 62 g/ha", "setting": "giant foxtail; Postemergence, 62 g ai/ha, scale 0 to 100 (0 no effect, 100 complete control), read-out: Plant response rating, Foxtail, Giant", "result": 45, "unit": "%"}, {"measurement": "Soybean plant response rating (crop injury, 0-100 scale) at 16 g/ha", "setting": "soybean; 16 g ai/ha, postemergence, 0 is no effect, 100 is complete control", "result": 85, "unit": "%"}, {"measurement": "Soybean plant response rating (crop injury, 0-100 scale) at 125 g/ha", "setting": "soybean; 125 g ai/ha, postemergence, visual rating, scale 0 to 100 (0 no effect, 100 complete control), read-out: Plant response rating, Soybean", "result": 95, "unit": "%"}, {"measurement": "Soybean plant response rating (crop injury, 0-100 scale) at 62 g/ha", "setting": "soybean; [6]", "result": 90, "unit": "%"}, {"measurement": "Corn plant response rating (crop injury, 0 = no effect, 100 = complete kill) at 31 g/ha", "setting": "corn [3]; 31 g ai/ha, 0 to 100 scale, 0 no effect, 100 complete control", "result": 30, "unit": "%"}, {"measurement": "plant injury at 125 g/ha", "setting": "corn [3]; 125 g ai/ha, 0 to 100 scale where 0 is no effect and 100 is complete control, read-out: Corn plant response rating", "result": 60, "unit": "%"}, {"measurement": "pest or weed control at 16 g/ha", "setting": "wild oat; 16 g ai/ha, postemergence, 0 is no effect, 100 is complete control, read-out: Plant response rating (0 to 100), Oat, Wild", "result": 0, "unit": "%"}, {"measurement": "pest or weed control at 125 g/ha", "setting": "wild oat; 125 g ai/ha, postemergence, visual rating, scale 0 to 100 (0 no effect, 100 complete control), read-out: Plant response rating, Oat, Wild", "result": 30, "unit": "%"}, {"measurement": "pest or weed control at 62 g/ha", "setting": "wild oat; Postemergence, 62 g ai/ha, scale 0 to 100 (0 no effect, 100 complete control), read-out: Plant response rating, Oat, Wild", "result": 10, "unit": "%"}, {"measurement": "pest or weed control at 31 g/ha", "setting": "pigweed [4]; 31 g ai/ha, 0 to 100 scale, 0 no effect, 100 complete control, read-out: Plant response rating, Pigweed", "result": 100, "unit": "%"}, {"measurement": "pest or weed control at 125 g/ha", "setting": "pigweed [4]; 240 h, 125 g ai/ha, 0 to 100 scale where 0 is no effect and 100 is complete control, read-out: Pigweed plant response rating", "result": 100, "unit": "%"}, {"measurement": "pest or weed control at 125 g/ha", "setting": "pigweed [5]; 125 g ai/ha", "result": 100, "unit": "%"}, {"measurement": "pest or weed control at 31 g/ha", "setting": "pigweed [5]; 240 h, 31 g ai/ha, visual, approximately 10 days", "result": 100, "unit": "%"}]}
